Calls of active or inactive are those of the source. The calls are words filed in the database; no cut-off is given here.
Assays:
HeLa [1] = experiment: Cytotoxicity against human HeLa cells assessed as cell viability after 48 hrs by MTT assay; assay type: functional, cell-based
A549 = experiment: Cytotoxicity against human A549 cells assessed as cell viability after 48 hrs by MTT assay; assay type: functional, cell-based; conditions: A549, 48 h
MCF7 = experiment: Cytotoxicity against human MCF7 cells assessed as cell viability after 48 hrs by MTT assay; assay type: functional, cell-based; conditions: MCF7, 48 h
DU-145 = experiment: Cytotoxicity against human DU145 cells assessed as cell viability after 48 hrs by MTT assay; assay type: functional, cell-based; conditions: DU-145, 48 h
Tubulin (Bos taurus) = Tubulin (Bos taurus) (UniProt Q6B856+Q862L2+Q862F3); experiment: Inhibition of bovine brain tubulin polymerization by fluorescence based tubulin polymerization assay
Danio rerio = species on record: Danio rerio; experiment: Delay in development of wild type zebrafish embryo at 25 uM observed 28 hpf by stereomicroscopy; assay type: functional, organism-based
HeLa [2] = experiment: Antimitotic activity against human HeLa cells assessed as cells accumulation at G2/M phase at 5 uM after 24 hrs by Propidium iodide staining based FACS/flow cytometry (reference value: 17.68%); assay type: functional
HeLa [3] = experiment: Antimitotic activity against human HeLa cells assessed as cells accumulation at G2/M phase at 10 uM after 24 hrs by Propidium iodide staining based FACS/flow cytometry (reference value: 17.68%); assay type: functional
HeLa [4] = experiment: Antimicrotubule activity in human HeLa cells assessed as multipolar spindle fiber at 5 uM after 24 hrs; assay type: functional, cell-based
HeLa [5] = experiment: Antimicrotubule activity in human HeLa cells assessed as metaphase arrest at 5 uM after 24 hrs by immunohistochemistry; assay type: functional, cell-based

`COc1ccc(-c2cc(/C=C3\C(=O)Nc4ccc([N+](=O)[O-])cc43)[nH]n2)cc1OC` showed an IC50 (HeLa [1]) of 36 µM, an IC50 (A549) of 42 µM and an IC50 (MCF7) of 42 µM. For the same molecule, the IC50 (DU-145) was 28 µM and the INH (Tubulin (Bos taurus)) was 18 µM.
`COc1ccc(-c2cc(/C=C3\C(=O)Nc4ccccc43)[nH]n2)cc1OC` gave an IC50 (HeLa [1]) of 21 µM, an IC50 (A549) of 29 µM and an IC50 (MCF7) of 36 µM. It also gave an IC50 (DU-145) of 31 µM and an INH (Tubulin (Bos taurus)) of 23 µM.
In the case of `COc1cc(-c2cc(/C=C3\C(=O)Nc4ccccc43)[nH]n2)cc(OC)c1OC`, the IC50 (HeLa [1]) is reported as 21 µM, the IC50 (A549) is reported as 21 µM and the IC50 (MCF7) is reported as 27 µM. It also gave an IC50 (DU-145) of 35 µM and an INH (Tubulin (Bos taurus)) of 18 µM.
Molecule `O=C1Nc2ccc([N+](=O)[O-])cc2/C1=C/c1cc(-c2ccc3c(c2)OCO3)n[nH]1` has an IC50 (HeLa [1]) of 24 µM, an IC50 (A549) of 37 µM and an IC50 (MCF7) of 17 µM. For the same molecule, the IC50 (DU-145) was 36 µM and the INH (Tubulin (Bos taurus)) was 14.7 µM.
`COc1ccc(-c2cc(/C=C3\C(=O)Nc4cc(Cl)ccc43)[nH]n2)cc1OC` was tested, and the IC50 (HeLa [1]) was 11 µM, the IC50 (A549) was 18 µM and the IC50 (MCF7) was 27 µM. It also gave an IC50 (DU-145) of 13.9 µM and an INH (Tubulin (Bos taurus)) of 18.9 µM.
With `COc1ccc(-c2cc(/C=C3\C(=O)Nc4ccccc43)[nH]n2)cc1` the IC50 (HeLa [1]) was 18 µM, the IC50 (A549) was 14 µM and the IC50 (MCF7) was 15 µM. For the same molecule, the IC50 (DU-145) was 21 µM, the INH (Tubulin (Bos taurus)) was 38.9 µM and the Activity (Danio rerio) was “Active”.
For `COC(=O)Nc1nc2cc(C(=O)c3cccs3)ccc2[nH]1` [NOCODAZOLE], the IC50 (HeLa [1]) was 1.1 µM, the IC50 (A549) was 0.89 µM and the IC50 (MCF7) was 1.7 µM. For the same molecule, the IC50 (DU-145) was 3.2 µM, the INH (Tubulin (Bos taurus)) was 2.2 µM and the Activity (Danio rerio) was “Active”.
`COc1ccc(-c2cc(/C=C3\C(=O)Nc4ccc(Cl)cc43)[nH]n2)cc1` showed an IC50 (HeLa [1]) of 5 µM, an IC50 (A549) of 6 µM and an IC50 (MCF7) of 9.3 µM. For the same molecule, the IC50 (DU-145) was 4 µM, the Activity (HeLa [2]) was 69.01% and the Activity (HeLa [3]) was 72.75%. The Activity (HeLa [4]) was “Active”, the INH (Tubulin (Bos taurus)) was 8.1 µM and the Activity (Danio rerio) was “Active”.
`O=C1Nc2ccc(Cl)cc2/C1=C/c1cc(-c2ccc3c(c2)OCO3)n[nH]1` gave an IC50 (HeLa [1]) of 12 µM, an IC50 (A549) of 29 µM and an IC50 (MCF7) of 44 µM. It also gave an IC50 (DU-145) of 24 µM and an INH (Tubulin (Bos taurus)) of 35.3 µM.
`COc1ccc2c(c1)/C(=C/c1cc(-c3ccc(OC)c(OC)c3)n[nH]1)C(=O)N2` showed an IC50 (HeLa [1]) of 13 µM, an IC50 (A549) of 15 µM and an IC50 (MCF7) of 32 µM. The IC50 (DU-145) was 34 µM and the INH (Tubulin (Bos taurus)) was 22.1 µM.
`COc1cc(-c2cc(/C=C3\C(=O)Nc4cc(Cl)ccc43)[nH]n2)cc(OC)c1OC` gave an IC50 (HeLa [1]) of 11 µM, an IC50 (A549) of 33 µM and an IC50 (MCF7) of 22 µM. It also gave an IC50 (DU-145) of 27 µM and an INH (Tubulin (Bos taurus)) of 22.4 µM.
`COc1ccc(-c2cc(/C=C3\C(=O)Nc4ccc([N+](=O)[O-])cc43)[nH]n2)cc1` was tested, and the IC50 (HeLa [1]) was 33 µM, the IC50 (A549) was 22 µM and the IC50 (MCF7) was 24 µM. It also gave an IC50 (DU-145) of 26 µM and an INH (Tubulin (Bos taurus)) of 21 µM.
For `COc1cc(-c2cc(/C=C3\C(=O)Nc4ccc([N+](=O)[O-])cc43)[nH]n2)cc(OC)c1OC`, the IC50 (HeLa [1]) was 30 µM, the IC50 (A549) was 22 µM and the IC50 (MCF7) was 16 µM. For the same molecule, the IC50 (DU-145) was 20 µM and the INH (Tubulin (Bos taurus)) was 15.3 µM.
For `O=C1Nc2cc(Cl)ccc2/C1=C/c1cc(-c2ccc3c(c2)OCO3)n[nH]1`, the IC50 (HeLa [1]) was 7.3 µM, the IC50 (A549) was 27 µM and the IC50 (MCF7) was 18 µM. The IC50 (DU-145) was 24 µM and the INH (Tubulin (Bos taurus)) was 14.5 µM.
In the case of `COc1ccc2c(c1)/C(=C/c1cc(-c3cc(OC)c(OC)c(OC)c3)n[nH]1)C(=O)N2`, the IC50 (HeLa [1]) is reported as 16 µM, the IC50 (A549) is reported as 33 µM and the IC50 (MCF7) is reported as 8.8 µM. For the same molecule, the IC50 (DU-145) was 9.1 µM and the INH (Tubulin (Bos taurus)) was 16 µM.
Work on `COc1ccc(-c2cc(/C=C3\C(=O)Nc4ccc(Cl)cc43)[nH]n2)cc1OC` yielded an IC50 (HeLa [1]) of 10 µM, an IC50 (A549) of 24 µM and an IC50 (MCF7) of 16 µM. For the same molecule, the IC50 (DU-145) was 21 µM and the INH (Tubulin (Bos taurus)) was 33.8 µM.
For `COc1cc(-c2cc(/C=C3\C(=O)Nc4ccc(Cl)cc43)[nH]n2)cc(OC)c1OC`, the IC50 (HeLa [1]) was 12 µM, the IC50 (A549) was 27 µM and the IC50 (MCF7) was 44 µM. For the same molecule, the IC50 (DU-145) was 21 µM and the INH (Tubulin (Bos taurus)) was 25.3 µM.
With `COc1ccc2c(c1)/C(=C/c1cc(-c3ccc4c(c3)OCO4)n[nH]1)C(=O)N2` the IC50 (HeLa [1]) was 13.5 µM, the IC50 (A549) was 24 µM and the IC50 (MCF7) was 9.8 µM. The IC50 (DU-145) was 34 µM and the INH (Tubulin (Bos taurus)) was 12 µM.
With `O=C1Nc2ccc(F)cc2/C1=C/c1cc(-c2ccc3c(c2)OCO3)n[nH]1` the IC50 (HeLa [1]) was 32 µM, the IC50 (A549) was 26 µM and the IC50 (MCF7) was 36 µM. The IC50 (DU-145) was 21 µM and the INH (Tubulin (Bos taurus)) was 24 µM.
For `COc1ccc(-c2cc(/C=C3\C(=O)Nc4cc(Cl)ccc43)[nH]n2)cc1`, the IC50 (HeLa [1]) was 2.4 µM, the IC50 (A549) was 3 µM and the IC50 (MCF7) was 3.6 µM. It also gave an IC50 (DU-145) of 3 µM, an Activity (HeLa [2]) of 71.2% and an Activity (HeLa [3]) of 77.6%. For the same molecule, the Activity (HeLa [4]) was “Active”, the INH (Tubulin (Bos taurus)) was 5.9 µM and the Activity (Danio rerio) was “Active”.
`COc1ccc(-c2cc(/C=C3\C(=O)Nc4ccc(OC)cc43)[nH]n2)cc1` showed an IC50 (HeLa [1]) of 7.1 µM, an IC50 (A549) of 8 µM and an IC50 (MCF7) of 6 µM. The IC50 (DU-145) was 9 µM, the Activity (HeLa [2]) was 60.19% and the Activity (HeLa [3]) was 60.38%. For the same molecule, the Activity (HeLa [5]) was “Active” and the INH (Tubulin (Bos taurus)) was 9.2 µM.
With `COc1ccc(-c2cc(/C=C3\C(=O)Nc4ccc(F)cc43)[nH]n2)cc1` the IC50 (HeLa [1]) was 22 µM, the IC50 (A549) was 29 µM and the IC50 (MCF7) was 36 µM. The IC50 (DU-145) was 25 µM and the INH (Tubulin (Bos taurus)) was 25 µM.

Source: ChEMBL document CHEMBL3407458, “Design and synthesis of pyrazole-oxindole conjugates targeting tubulin polymerization as new anticancer agents” (Eur J Med Chem, 2015)
